Experimental data taken from PubChem BioAssay AID248 (DTP/NCI, 2004).
Where “and” joins values, the source holds several entries; their conditions need not be identical. Equal values may be shown once. Toxic doses and inconclusive results are not listed. Rule as the data show it: active = T/C of 150% or more; inactive = T/C below 125%.

System: L1210 leukemia ip in BDF1 mice, survival T/C
Assay: NCI In Vivo Anticancer Drug Screen. Data for tumor model L1210 Leukemia (intraperitoneal) in B6D2F1 (BDF1) mice
Conditions: endpoint: mean survival time, higher = longer survival
Method in brief: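 Transplanted-tumor mice were given test agent; controls received vehicle only. Survival readings from the two groups were divided (treated over control).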

[1] = dose: 100.0 mg/kg/injection, schedule: Q04DX003 (ip), vehicle: saline with Tween-80
[2] = dose: 50.0 mg/kg/injection, schedule: Q01DX001 (ip), vehicle: saline
[3] = dose: 100.0 mg/kg/injection, schedule: Q01DX001 (ip), vehicle: saline
[4] = dose: 200.0 mg/kg/injection, schedule: Q01DX001 (ip), vehicle: saline
[5] = dose: 400.0 mg/kg/injection, schedule: Q01DX001 (ip), vehicle: saline
[6] = dose: 100.0 mg/kg/injection, schedule: Q04DX002 (ip), vehicle: Klucel (hydroxypropylcellulose) (HPC)
[7] = dose: 200.0 mg/kg/injection, schedule: Q04DX002 (ip), vehicle: Klucel (hydroxypropylcellulose) (HPC)
[8] = dose: 400.0 mg/kg/injection, schedule: Q04DX002 (ip), vehicle: Klucel (hydroxypropylcellulose) (HPC)
[9] = dose: 100.0 mg/kg/injection, schedule: Q01DX009 (ip), vehicle: saline with Tween-80
[10] = dose: 100.0 mg/kg/injection, schedule: Q04DX002 (ip), vehicle: saline
[11] = dose: 200.0 mg/kg/injection, schedule: Q01DX009 (ip), vehicle: saline with Tween-80
[12] = dose: 200.0 mg/kg/injection, schedule: Q04DX002 (ip), vehicle: saline
[13] = dose: 200.0 mg/kg/injection, schedule: Q04DX003 (ip), vehicle: saline with Tween-80
[14] = dose: 400.0 mg/kg/injection, schedule: Q04DX002 (ip), vehicle: saline
[15] = dose: 400.0 mg/kg/injection, schedule: Q04DX003 (ip), vehicle: saline with Tween-80

Measured: T/C

CC1CCC2(C(=O)O)CCC3(C)C(=CCC4C5(C)CC(O)C(O)C(C)(C(=O)O)C5CCC43C)C2C1(C)O (stereo unspecified)
inactive: dose: 100.0 mg/kg/injection, schedule: Q01DX001 (ip), vehicle: alkali diluted with saline 94 % of control | dose: 100.0 mg/kg/injection, schedule: Q01DX001 (ip), vehicle: saline with Tween-80 97 % of control | dose: 200.0 mg/kg/injection, schedule: Q01DX001 (ip), vehicle: alkali diluted with saline 100 % of control | dose: 200.0 mg/kg/injection, schedule: Q01DX001 (ip), vehicle: saline with Tween-80 89 % of control

Cc1ccccc1N=Nc1c(O)n(-c2ccc(I)cc2)c(=S)n(-c2ccccc2)c1=O
inactive: dose: 37.5 mg/kg/injection, schedule: Q01DX001 (ip), vehicle: Klucel (hydroxypropylcellulose) (HPC) 103 % of control | dose: 75.0 mg/kg/injection, schedule: Q01DX001 (ip), vehicle: Klucel (hydroxypropylcellulose) (HPC) 113 % of control | dose: 150.0 mg/kg/injection, schedule: Q01DX001 (ip), vehicle: Klucel (hydroxypropylcellulose) (HPC) 105 % of control

CC1=NC2(CCCCC2)C[N+]1(Cc1ccccc1)Cc1ccccc1
inactive: [1] 94 % of control

COc1ccc(CN2CCCN(Cc3ccc(OC)cc3OC)C2c2cccnc2)c(OC)c1
inactive: [2] 94 % of control | [3] 100 % of control | [4] 103 % of control | [5] 100 % of control

O=C(NP(=O)(N1CC1)N1CC1)OCCCCCCOC(=O)NP(=O)(N1CC1)N1CC1
inactive: dose: 100.0 mg/kg/injection, schedule: Q01DX001 (ip), vehicle: carboxymethylcellulose (CMC) 101 % of control | dose: 200.0 mg/kg/injection, schedule: Q01DX001 (ip), vehicle: carboxymethylcellulose (CMC) 113 % of control | dose: 400.0 mg/kg/injection, schedule: Q01DX001 (ip), vehicle: carboxymethylcellulose (CMC) 108 % of control

Cc1cc2c(C)c3nc4ccccc4c3c(C)c2c[nH]1
inactive: [2] 107 % of control | [3] 98 % of control | [4] 101 % of control | [5] 107 % of control | dose: 800.0 mg/kg/injection, schedule: Q01DX001 (ip), vehicle: saline 110 % of control | dose: 1600.0 mg/kg/injection, schedule: Q01DX001 (ip), vehicle: saline 118 % of control

Cc1[nH]c(=O)[nH]c(=O)c1Br
inactive: dose: 37.0 mg/kg/injection, schedule: Q01DX Z (ip), vehicle: methylcellulose (MC) 91 % of control | dose: 75.0 mg/kg/injection, schedule: Q01DX Z (ip), vehicle: methylcellulose (MC) 96 % of control | dose: 150.0 mg/kg/injection, schedule: Q01DX Z (ip), vehicle: methylcellulose (MC) 86 % of control

CC1(CC(=O)O)CCCCC1CC(=O)O (stereo unspecified)
inactive: [6] 110 % of control | [7] 103 % of control | [8] 97 % of control

COc1cccc2c1C(=O)CC2
inactive: dose: 25.0 mg/kg/injection, schedule: Q01DX009 (ip), vehicle: acetone 101 % of control | dose: 50.0 mg/kg/injection, schedule: Q01DX009 (ip), vehicle: acetone 106 % of control | dose: 100.0 mg/kg/injection, schedule: Q01DX009 (ip), vehicle: acetone 103 % of control | [1] 87 % of control

COc1cc2ccc(C(C)NCC#N)cc2cc1OC (stereo unspecified)
inactive: dose: 100.0 mg/kg/injection, schedule: Q01DX009 (ip), vehicle: Klucel (hydroxypropylcellulose) (HPC) 97 % of control | dose: 100.0 mg/kg/injection, schedule: Q04DX003 (ip), vehicle: Klucel (hydroxypropylcellulose) (HPC) 88 % of control | dose: 200.0 mg/kg/injection, schedule: Q01DX009 (ip), vehicle: Klucel (hydroxypropylcellulose) (HPC) 101 % of control | dose: 200.0 mg/kg/injection, schedule: Q04DX003 (ip), vehicle: Klucel (hydroxypropylcellulose) (HPC) 93 % of control | dose: 400.0 mg/kg/injection, schedule: Q04DX003 (ip), vehicle: Klucel (hydroxypropylcellulose) (HPC) 106 % of control

O=C(Nc1ccc([N+](=O)[O-])cc1Br)c1ccc(C(=O)Nc2ccc([N+](=O)[O-])cc2Br)cc1
inactive: [3] 97 % of control | [4] 105 % of control | [5] 103 % of control

CNC(=O)Nc1ccc(C(=O)NCC(=O)O)cc1
inactive: [9] 100 % of control and 105 % of control | [10] 100 % of control and 92 % of control | [1] 98 % of control | [11] 93 % of control and 100 % of control | [12] 100 % of control and 91 % of control | [13] 91 % of control | dose: 400.0 mg/kg/injection, schedule: Q01DX009 (ip), vehicle: saline with Tween-80 105 % of control and 110 % of control | [14] 95 % of control and 96 % of control | [15] 98 % of control

COc1cc(O)c2c(c1)C(=O)c1cc3c(c(O)c1C2=O)C(OC1OC(C)C(O)C(O)C1OC)C(OC)C(C)(O)C3=O (stereo unspecified)
inactive: [3] 92 % of control | [4] 103 % of control | [5] 97 % of control

C#CCOCC(CCl)OC(N)=O (stereo unspecified)
inactive: dose: 50.0 mg/kg/injection, schedule: Q01DX009 (ip), vehicle: saline with Tween-80 121 % of control | dose: 50.0 mg/kg/injection, schedule: Q04DX003 (ip), vehicle: saline with Tween-80 104 % of control | [9] 105 % of control | [1] 101 % of control | [11] 106 % of control | [13] 110 % of control

NC(=S)Nc1cccnc1
inactive: dose: 25.0 mg/kg/injection, schedule: Q04DX002 (ip), vehicle: Klucel (hydroxypropylcellulose) (HPC) 91 % of control | dose: 50.0 mg/kg/injection, schedule: Q04DX002 (ip), vehicle: Klucel (hydroxypropylcellulose) (HPC) 91 % of control | [6] 97 % of control

CCN(CCO)c1ccc(N)cc1C
inactive: dose: 0.5 mg/kg/injection, schedule: Q04DX003 (ip), vehicle: saline 97 % of control | dose: 1.0 mg/kg/injection, schedule: Q04DX003 (ip), vehicle: saline 95 % of control | dose: 2.0 mg/kg/injection, schedule: Q04DX003 (ip), vehicle: saline 97 % of control | dose: 6.25 mg/kg/injection, schedule: Q04DX003 (ip), vehicle: saline 88 % of control | dose: 12.5 mg/kg/injection, schedule: Q04DX003 (ip), vehicle: saline 102 % of control

CN1CCN(c2c3c(nc4ccccc24)CCCC3)CC1
inactive: [3] 96 % of control

NS(=O)(=O)c1ccc(N=Nc2ccc([As](=O)(O)O)cc2)cc1
inactive: [3] 98 % of control | [4] 98 % of control | [5] 98 % of control

NC(=O)NC1CCCCC1
inactive: [1] 87 % of control | [13] 97 % of control | [15] 92 % of control

COc1cc(CC2c3cccc(Oc4ccc(C)cc4)c3CCN2C)ccc1Oc1ccc(C)cc1 (stereo unspecified)
inactive: dose: 100.0 mg/kg/injection, schedule: Q04DX002 (ip), vehicle: other 96 % of control | dose: 200.0 mg/kg/injection, schedule: Q04DX002 (ip), vehicle: other 100 % of control | dose: 400.0 mg/kg/injection, schedule: Q04DX002 (ip), vehicle: other 100 % of control

CCCCNC(=O)Nc1ccc(Cl)cc1C(=O)c1ccccc1
inactive: [6] 105 % of control | [7] 102 % of control | [8] 94 % of control

Fc1ccc(NC(=S)Nc2ccccc2)cc1
inactive: [6] 108 % of control | [7] 116 % of control | [8] 97 % of control

O=S(=O)(Cc1cccc(Cl)c1)c1ccccc1
inactive: [6] 96 % of control | [7] 107 % of control | [8] 104 % of control

CC(C)(N)C(=O)O
inactive: dose: 100.0 mg/kg/injection, schedule: Q04DX003 (ip), vehicle: saline sonified 101 % of control | dose: 200.0 mg/kg/injection, schedule: Q04DX003 (ip), vehicle: saline sonified 98 % of control | dose: 400.0 mg/kg/injection, schedule: Q04DX003 (ip), vehicle: saline sonified 98 % of control

N#CC(/C=C/c1ccccc1)NCC(O)c1ccccc1 (stereo unspecified)
inactive: dose: 100.0 mg/kg/injection, schedule: Q01DX009 (ip), vehicle: saline sonified 95 % of control | dose: 200.0 mg/kg/injection, schedule: Q01DX009 (ip), vehicle: saline sonified 95 % of control | dose: 400.0 mg/kg/injection, schedule: Q01DX009 (ip), vehicle: saline sonified 95 % of control

CN1C(=O)C2CCCN2C(=O)C1(C)O (stereo unspecified)
inactive: [10] 90 % of control | [12] 97 % of control | [14] 97 % of control

O=C(C[n+]1ccccc1Br)c1ccc2ccccc2c1
inactive: dose: 9.38 mg/kg/injection, schedule: Q01DX001 (ip), vehicle: other 104 % of control | dose: 18.75 mg/kg/injection, schedule: Q01DX001 (ip), vehicle: other 103 % of control | dose: 37.5 mg/kg/injection, schedule: Q01DX001 (ip), vehicle: other 103 % of control
